Source: US11583494B2, “Pharmaceutical composition for nasal administration” (MEDILABO RFP, INC., priority 2017, dated 2023)

Key:
[1] = system: APP OSK mouse; experiment: Behavior test: space reference memory of mouse, Morris water maze; assay type: in vivo; settings: 1 month
Experimental: (§1) Male APP OSK mice (Tomiyama et al. J Neurosci. 2010; 30:4845-56) aged 11 months were prepared. APP OSK mice weigh about 30 g. The 60 APP OSK mice were classified into five groups A to E, each containing 12 mice. Separately, 12 wild-type mice (non-Tg littermate) of the same age in month were prepared.
(§2) Administration was performed without anesthesia using a rodent oral sonte for oral administration, a Pipetman (white tip) for nasal administration, and an injection syringe for subcutaneous administration.
The behavior test was performed by measuring space reference memory of mouse using a Morris water maze according to the method of Umeda et al. Brain 2016; 139:1568-86.

[2] = Impaired liver function: hepatic enzymes AST (GOT) and ALT (GPT) in serum; assay type: in vivo, mouse; settings: 1 month
Experimental: as §1, §2
Blood was sampled from mice after end of the behavior test, and serum was separated from the blood to prepare a serum sample. Hepatic enzymes AST (GOT) and ALT (GPT) in the serum sample were measured, and the degree of impaired liver function by rifampicin was compared.

[3] = target: T1, Aβ oligomers (Homo sapiens, UniProt P05067, DEL693-693); assay type: in vivo, mouse
T1 construct: from tissue; host or cells: brain (hippocampus) of APP OSK transgenic mice
Experimental: as §1, §2
According to the procedure described in Umeda et al. Brain 2016; 139:1568-86, Aβ oligomers (Aβ oligomers are considered to cause phosphorylation of tau and reduction in synaptophysin), synaptophysin (marker protein of synapse), and phosphorylated tau were stained by immunohistological staining. For staining Aβ oligomers, 11A1 antibody (available from Immune-Biological laboratories Co., Ltd.) was used, and for staining synaptophysin, SVP-38 antibody (available from Sigma) was used. Mouse monoclonal PHF-1 antibody (anti p-Ser396/404-tau antibody, provided by Dr. Peter Davies, Albert Einstein College of Medicine) was used for staining phosphorylated tau. After staining, Aβ oligomers, synaptophysin, and phosphorylated tau were quantified by using NIH image-J.

[4] = target: T2, Aβ (Homo sapiens, UniProt P05067); experiment: Formation of oligomers in vitro, Aβ; assay type: biochemical
T2 construct: Rifampicins have the action of suppressing formation of oligomers of amyloid β, tau, and α synuclein

[5] = system: tau; experiment: Formation of oligomers in vitro, tau; assay type: biochemical
[6] = target: α synuclein (Homo sapiens, UniProt P37840); experiment: Formation of oligomers in vitro, α synuclein; assay type: biochemical
[7] = system: AD model mouse; experiment: Oral administration to AD model mouse in which Aβ accumulates; assay type: in vivo
[8] = system: FTD model mouse; experiment: Oral administration to FTD model mouse in which tau accumulates; assay type: in vivo

Structure (SMILES): CO[C@H]1/C=C/O[C@@]2(C)Oc3c(C)c(O)c4c(O)c(c(/C=N/N5CCN(C)CC5)c(O)c4c3C2=O)NC(=O)/C(C)=C\C=C\[C@H](C)[C@H](O)[C@@H](C)[C@@H](O)[C@@H](C)[C@H](OC(C)=O)[C@@H]1C [Rifampicin, 3-(4-methylpiperazinyliminomethyl)rifamycin SV]
- Ameliorating effect on disturbance of memory (FIG. 1) ([1]; Example 2: nasal, 0.05 mg/day): reached to the same level as in wild-type mouse
- Ameliorating effect on disturbance of memory compared with oral administration (Comparative Example 1, […]) ([1]; Example 2: nasal, dosage one-fifth (0.05 mg/day)): higher than the case of oral administration
- Amelioration of disturbance of memory (FIG. 1) ([1]; any of oral, nasal and subcutaneous administration, APP OSK mice): amelioration of disturbance of memory of APP OSK mouse was confirmed
- Elevation of AST in comparison with CMC-administered APP OSK mouse ([2]; Example 2: nasal, 0.05 mg/day): Slight elevation
- Change of ALT ([2]; any administration method (oral, nasal, subcutaneous)): no significant change was observed
- Effect of reducing Aβ oligomers in comparison for the same dosage (FIG. 3) ([3]; Example 1: nasal, […], versus oral and subcutaneous […]): highest
- Quantification of Aβ oligomers (FIG. 3) ([3]; any of oral (Comparative Example 1), nasal (Example 1, Example 2), subcutaneous (Reference Example 3)): reduced to at least the same level as that in wild-type mouse
- Formation of oligomers of Aβ [4]: suppresses formation of oligomers
- Formation of oligomers of tau [5]: suppresses formation of oligomers
- Formation of oligomers of α synuclein [6]: suppresses formation of oligomers
- Cognitive function of mouse [7]: recovery of the cognitive function
- Cognitive function of mouse [8]: recovery of the cognitive function
